One assay concerns the target T1, IRAK1 (Homo sapiens, UniProt P51617).
T1 construct: purchased Reaction Biology (RBC HotSpot)
The assay is described as follows: RBC HotSpot Kinase Assay, IRAK1. The format is biochemical. The note with it: isolated kinase enzyme, 33P-ATP, P81 filter-binding. Put shortly:
(§1)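 Reactions ran in 20 mM Hepes (pH 7.5) containing 10 mM MgCl2, 1 mM EGTA, 0.1 mM Na3VO4, 2 mM DTT, 0.02 mg/ml BSA, 0.01% Brij35 and 1% DMSO, plus required cofactors. Functional activity readout on the expressible enzyme form, sometimes C-terminally truncated or lacking receptor regulatory regions.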

The next assay has as its target T2, FLT3 (Homo sapiens, UniProt P36888).
T2 sequence (P36888 27-993): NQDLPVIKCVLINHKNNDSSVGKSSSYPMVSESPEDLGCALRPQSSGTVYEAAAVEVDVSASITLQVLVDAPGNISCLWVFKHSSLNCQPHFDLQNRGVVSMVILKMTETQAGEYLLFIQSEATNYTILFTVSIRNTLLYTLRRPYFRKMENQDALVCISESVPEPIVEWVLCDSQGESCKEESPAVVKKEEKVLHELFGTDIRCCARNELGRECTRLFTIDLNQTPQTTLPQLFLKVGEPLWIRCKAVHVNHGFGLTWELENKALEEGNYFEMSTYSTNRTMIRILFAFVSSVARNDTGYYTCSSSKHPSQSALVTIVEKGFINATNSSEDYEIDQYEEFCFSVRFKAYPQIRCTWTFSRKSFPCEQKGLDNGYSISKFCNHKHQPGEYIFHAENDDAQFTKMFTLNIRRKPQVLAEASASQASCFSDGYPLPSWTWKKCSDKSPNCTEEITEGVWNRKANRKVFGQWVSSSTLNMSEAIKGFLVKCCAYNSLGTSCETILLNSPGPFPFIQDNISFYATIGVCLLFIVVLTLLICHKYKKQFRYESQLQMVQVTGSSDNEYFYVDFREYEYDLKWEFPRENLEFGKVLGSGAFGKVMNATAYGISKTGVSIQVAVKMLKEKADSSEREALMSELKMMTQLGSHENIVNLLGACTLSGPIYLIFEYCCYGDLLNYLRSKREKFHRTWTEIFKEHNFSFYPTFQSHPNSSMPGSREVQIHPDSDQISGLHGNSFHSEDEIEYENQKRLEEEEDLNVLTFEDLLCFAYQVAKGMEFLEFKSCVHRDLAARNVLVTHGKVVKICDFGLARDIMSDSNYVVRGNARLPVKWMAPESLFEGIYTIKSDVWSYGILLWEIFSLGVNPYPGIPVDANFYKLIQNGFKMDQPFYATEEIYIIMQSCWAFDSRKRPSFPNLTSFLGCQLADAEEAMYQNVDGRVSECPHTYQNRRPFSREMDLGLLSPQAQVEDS
The assay is described as follows: RBC HotSpot Kinase Assay, FLT3. The format is biochemical. Also noted: purchased Reaction Biology (RBC HotSpot). The note with it: isolated kinase enzyme, 33P-ATP, P81 filter-binding. A digest of the protocol: as §1

In a further assay the target is T3, IRAK4 (Homo sapiens, UniProt Q9NWZ3).
T3 sequence (Q9NWZ3 1-460): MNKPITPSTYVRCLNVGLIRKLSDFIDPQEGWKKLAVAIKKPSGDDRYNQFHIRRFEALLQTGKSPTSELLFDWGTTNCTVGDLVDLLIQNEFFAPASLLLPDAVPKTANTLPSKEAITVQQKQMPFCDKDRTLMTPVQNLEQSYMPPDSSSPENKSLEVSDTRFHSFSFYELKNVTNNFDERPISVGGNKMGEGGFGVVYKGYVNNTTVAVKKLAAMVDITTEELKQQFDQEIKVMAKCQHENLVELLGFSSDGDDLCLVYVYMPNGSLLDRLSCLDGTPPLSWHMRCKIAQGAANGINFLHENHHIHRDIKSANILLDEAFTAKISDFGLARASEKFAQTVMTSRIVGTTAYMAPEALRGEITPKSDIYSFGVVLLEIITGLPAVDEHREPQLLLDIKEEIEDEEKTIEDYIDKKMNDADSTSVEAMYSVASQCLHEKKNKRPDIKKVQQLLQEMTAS
The assay is described as follows: RBC HotSpot Kinase Assay, IRAK4. The format is biochemical. The arrangement: purchased Reaction Biology (RBC HotSpot). Particulars: isolated kinase enzyme, 33P-ATP, P81 filter-binding. A digest of the protocol: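 Radiometric filter-binding activity assay with isolated recombinant kinase (construct may be truncated or catalytic domain only) in 20 mM Hepes pH 7.5, 10 mM MgCl2, 1 mM EGTA, 2 mM DTT, 1% DMSO. Compound preincubated 20 min with kinase/substrate; reaction started with 33P-ATP, run 2 h at room temperature.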

For the next assay, the system named is MOLM14 D835Y cells. The assay is described as follows: MOLM14 D835Y cell viability assay (Cell Titer Glo). The format is cell-based. The note with it: Homo sapiens, MOLM-14, 48 h, cell viability, Cell Titer Glo, 48 hours; read-out: MOLM14 D835Y IC50. A digest of the protocol:
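Luminescent ATP read-out (CellTiter-Glo, 15 min room temperature) taken 48 h after compound addition. Cells were MOLM14 carrying FLT3 D835Y or F691L mutations, plated at 1000 cells per well.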

In another assay the test system is MOLM14 F691L cells. As to the kind of experiment: MOLM14 F691L cell viability assay (Cell Titer Glo). The format is cell-based. Particulars: Homo sapiens, MOLM-14; cell viability, Cell Titer Glo, 48 hours; read-out: MOLM14 F691L IC50. As to the method:
Both cell lines have activated FLT3 receptors, each of which carry additional resistance mutations in the kinase domain (D835Y and F691L, respectively).
For viability/cytotoxicity assessments, cells were seeded into 1536-well white polystyrene tissue culture-treated Greiner plates using a Multidrop Combi dispenser (ThermoFisher), in final volume 5 μL of growth media per well, at a density of 1000 cells per well. […] Plates were incubated for 48 hours at standard incubator conditions covered by a stainless steel gasketed lid to prevent evaporation. 48 hours post compound addition, 3 μL of Cell Titer Glo (Promega) were added to each well and plates were incubated at room temperature for 15 minutes with the stainless-steel lid in place. Luminescence readings were taken using a Viewlux imager (PerkinElmer) with a 2 second exposure time per plate.

T1 sequence (P51617 whole entry): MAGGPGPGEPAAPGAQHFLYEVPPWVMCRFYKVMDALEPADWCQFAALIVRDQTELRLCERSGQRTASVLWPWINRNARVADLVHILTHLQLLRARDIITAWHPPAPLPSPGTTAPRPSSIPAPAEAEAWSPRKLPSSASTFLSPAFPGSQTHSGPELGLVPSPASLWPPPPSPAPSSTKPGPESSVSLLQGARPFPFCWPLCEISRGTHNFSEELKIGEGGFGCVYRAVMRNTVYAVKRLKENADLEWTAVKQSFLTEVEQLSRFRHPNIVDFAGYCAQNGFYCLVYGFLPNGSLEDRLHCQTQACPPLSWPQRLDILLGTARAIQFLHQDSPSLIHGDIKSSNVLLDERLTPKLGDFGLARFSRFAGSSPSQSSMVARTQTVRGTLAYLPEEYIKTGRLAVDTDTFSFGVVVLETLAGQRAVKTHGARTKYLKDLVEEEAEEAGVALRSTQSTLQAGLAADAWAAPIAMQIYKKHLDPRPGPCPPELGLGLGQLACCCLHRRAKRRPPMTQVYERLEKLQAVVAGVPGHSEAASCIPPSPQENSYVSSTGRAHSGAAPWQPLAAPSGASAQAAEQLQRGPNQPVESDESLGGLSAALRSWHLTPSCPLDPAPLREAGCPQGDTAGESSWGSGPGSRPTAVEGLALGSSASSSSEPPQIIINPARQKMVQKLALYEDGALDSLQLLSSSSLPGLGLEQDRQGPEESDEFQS

For `COc1cc2ncc(-c3ccnc(N[C@H]4CNC[C@@H]4F)n3)n2nc1C1CC2(CCC2)C1` [Compound 75a, N-((3S,4S)-4-fluoropyrrolidin-3-yl)-4-(7-methoxy-6-(spiro[3.3]heptan-2-yl)imidazo[1,2-b]pyridazin-3-yl)pyrimidin-2-amine], the concentration for half-maximal inhibition (IC50) on IRAK1 was 102 nM; on FLT3, under 0.5 nM; at IRAK4, 6 nM; in the assay on MOLM14 D835Y cells, 63 nM; in the assay on MOLM14 F691L cells, 634 nM.

On to `COc1cc2ncc(-c3ccnc(N[C@@H]4CCCNC4)n3)n2nc1C1CC2(CCC2)C1` [Compound 76a, (R)-4-(7-methoxy-6-(spiro[3.3]heptan-2-yl)imidazo[1,2-b]pyridazin-3-yl)-N-(piperidin-3-yl)pyrimidin-2-amine], for which the half-maximal inhibitory concentration (IC50) at IRAK1 was 37 nM; at FLT3, under 0.5 nM; on IRAK4, 21 nM; with MOLM14 D835Y cells, 101 nM; in the assay on MOLM14 F691L cells it was 1130 nM.

Regarding `COc1cc2ncc(-c3ccnc(N[C@H]4CNC[C@@H]4F)n3)n2nc1C1CCC1` [Compound 77a, 4-(6-cyclobutyl-7-methoxyimidazo[1,2-b]pyridazin-3-yl)-N-((3S,4S)-4-fluoropyrrolidin-3-yl)pyrimidin-2-amine], the IC50 on IRAK1 is 12 nM; on FLT3 it was under 0.5 nM; on IRAK4 it was 1 nM; in the assay on MOLM14 D835Y cells, 16 nM; in the assay on MOLM14 F691L cells, 142 nM.

Consider `COc1cc2ncc(-c3ccnc(N[C@H]4CNC[C@@H]4F)n3)n2nc1C1CC(C)(C)C1` [Compound 80a, 4-(6-(3,3-dimethylcyclobutyl)-7-methoxyimidazo[1,2-b]pyridazin-3-yl)-N-((3S,4S)-4-fluoropyrrolidin-3-yl)pyrimidin-2-amine], for which the IC50 at IRAK1 was 142 nM; at FLT3, under 0.5 nM; at IRAK4 it was 17 nM; in the assay with MOLM14 D835Y cells, 90 nM; in the assay on MOLM14 F691L cells it was 798 nM.

In the case of `COc1cc2ncc(-c3ccnc(N[C@@H]4CCCNC4)n3)n2nc1C1CC(C)(C)C1` [Compound 81a], the IC50 on IRAK1 is 49 nM; at FLT3 it was under 0.5 nM; on IRAK4 it was 55 nM; with MOLM14 D835Y cells, 90 nM; in the assay on MOLM14 F691L cells, 1260 nM.

As to `COc1cc2ncc(-c3ccnc(N[C@H]4CNC[C@@H]4F)n3)n2nc1C1CCCC1` [Compound 83a, 4-(6-cyclopentyl-7-methoxyimidazo[1,2-b]pyridazin-3-yl)-N-((3S,4S)-4-fluoropyrrolidin-3-yl)pyrimidin-2-amine], the half-maximal inhibitory concentration (IC50) on IRAK1 is 8 nM; at FLT3 it was under 0.5 nM; at IRAK4 it was 0.6 nM; in the assay on MOLM14 D835Y cells it was 16 nM; in the assay with MOLM14 F691L cells, 113 nM.

For `COc1cc2ncc(-c3ccnc(N[C@@H]4CCCNC4)n3)n2nc1C1CCCC1` [Compound 84a, (R)-4-(6-cyclopentyl-7-methoxyimidazo[1,2-b]pyridazin-3-yl)-N-(piperidin-3-yl)pyrimidin-2-amine], the IC50 is 18 nM at IRAK1; under 0.5 nM on FLT3; 2 nM at IRAK4; 14 nM in the assay on MOLM14 D835Y cells; 113 nM in the assay with MOLM14 F691L cells.

As to `COc1cc2ncc(-c3ccnc(N[C@H]4CNCC[C@@H]4F)n3)n2nc1C1CCCC1` [Compound 85a, 4-(6-cyclopentyl-7-methoxyimidazo[1,2-b]pyridazin-3-yl)-N-((3S,4S)-4-fluoropiperidin-3-yl)pyrimidin-2-amine], the concentration for half-maximal inhibition (IC50) is 7 nM at IRAK1; under 0.5 nM at FLT3; 1 nM at IRAK4; 11 nM with MOLM14 D835Y cells; 90 nM with MOLM14 F691L cells.

Regarding `COc1cc2ncc(-c3ccnc(N[C@H]4CNC[C@@H]4F)n3)n2nc1C1CCCCC1` [Compound 86a, 4-(6-cyclohexyl-7-methoxyimidazo[1,2-b]pyridazin-3-yl)-N-((3S,4S)-4-fluoropyrrolidin-3-yl)pyrimidin-2-amine], the IC50 on IRAK1 was 16 nM; on FLT3, under 0.5 nM; at IRAK4 it was 1 nM; in the assay with MOLM14 D835Y cells, 18 nM; in the assay with MOLM14 F691L cells, 142 nM.

Take `COc1cc2ncc(-c3ccnc(N[C@@H]4CCCNC4)n3)n2nc1C1CCCCC1` [Compound 87a, (R)-4-(6-cyclohexyl-7-methoxyimidazo[1,2-b]pyridazin-3-yl)-N-(piperidin-3-yl)pyrimidin-2-amine]: the IC50 is 26 nM at IRAK1; under 0.5 nM at FLT3; 3 nM at IRAK4; 28 nM in the assay on MOLM14 D835Y cells; 252 nM in the assay on MOLM14 F691L cells.

Consider `COc1cc2ncc(-c3ccnc(N[C@H]4CNCC[C@@H]4F)n3)n2nc1C1CCCCC1` [Compound 88a, 4-(6-cyclohexyl-7-methoxyimidazo[1,2-b]pyridazin-3-yl)-N-((3S,4S)-4-fluoropiperidin-3-yl)pyrimidin-2-amine], for which the IC50 is 13 nM at IRAK1; under 0.5 nM at FLT3; 4 nM on IRAK4; 25 nM in the assay with MOLM14 D835Y cells; 179 nM in the assay on MOLM14 F691L cells.

As to `COc1cc2ncc(-c3ccnc(N[C@H]4CNC[C@@H]4F)n3)n2nc1C12CC(C1)C2` [Compound 89a, 4-(6-(bicyclo[1.1.1]pentan-1-yl)-7-methoxyimidazo[1,2-b]pyridazin-3-yl)-N-((3S,4S)-4-fluoropyrrolidin-3-yl)pyrimidin-2-amine], the half-inhibitory concentration (IC50) on IRAK1 is 44 nM; on FLT3, under 0.5 nM; on IRAK4 it was 4 nM; with MOLM14 D835Y cells, 18 nM; in the assay on MOLM14 F691L cells, 160 nM.

In the case of `COc1cc2ncc(-c3ccnc(N[C@@H]4CCCNC4)n3)n2nc1C12CC(C1)C2` [Compound 90a, (R)-4-(6-(bicyclo[1.1.1]pentan-1-yl)-7-methoxyimidazo[1,2-b]pyridazin-3-yl)-N-(piperidin-3-yl)pyrimidin-2-amine], the IC50 at IRAK1 was 85 nM; on FLT3, under 0.5 nM; on IRAK4 it was 9 nM; with MOLM14 D835Y cells, 50 nM; with MOLM14 F691L cells, 449 nM.

For `COc1cc2ncc(-c3ccnc(N[C@H]4CNCC[C@@H]4F)n3)n2nc1C12CC(C1)C2` [Compound 91a, 4-(6-(bicyclo[1.1.1]pentan-1-yl)-7-methoxyimidazo[1,2-b]pyridazin-3-yl)-N-((3S,4S)-4-fluoropiperidin-3-yl)pyrimidin-2-amine], the concentration for half-maximal inhibition (IC50) at IRAK1 was 45 nM; at FLT3 it was under 0.5 nM; on IRAK4, 5 nM; with MOLM14 D835Y cells, 28 nM; with MOLM14 F691L cells it was 283 nM.

For the origin of these results see patent US20260226048A1, “MULTI-CYCLIC IRAK AND FLT3 INHIBITING COMPOUNDS AND USES THEREOF” (CHILDREN'S HOSPITAL MEDICAL CENTER, priority 2023, published 2026).
